The target in data set [1] is T1, hP2X4R (Homo sapiens, UniProt Q99571).
T1 construct: expressed in transfected cells; host or cells: Xenopus laevis oocytes (cRNA injection)
T1 sequence (Q99571 1-388): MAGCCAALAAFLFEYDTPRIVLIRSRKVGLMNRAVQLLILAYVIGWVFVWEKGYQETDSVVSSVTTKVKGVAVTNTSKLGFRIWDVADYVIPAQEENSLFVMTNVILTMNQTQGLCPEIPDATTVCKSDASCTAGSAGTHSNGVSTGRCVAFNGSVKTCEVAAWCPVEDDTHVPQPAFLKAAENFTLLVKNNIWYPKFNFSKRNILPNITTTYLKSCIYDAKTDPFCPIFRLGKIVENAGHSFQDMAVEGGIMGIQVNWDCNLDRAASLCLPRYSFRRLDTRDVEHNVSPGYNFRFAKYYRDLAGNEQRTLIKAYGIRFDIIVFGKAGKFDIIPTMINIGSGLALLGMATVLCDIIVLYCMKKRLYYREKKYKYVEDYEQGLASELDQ
In words: TEVC of ATP-induced currents, hP2X4R in X. laevis oocytes (steady-state protocol). The format is cell-based. An excerpt: (§1) Oocyte expression plasmids encoding the wild-type (wt) and N-terminally His-tagged (His-) fusion constructs of the hP2X2R, hP2X3R, hP2X4R, and hP2X7R, and the mutant His-^20RMVL^23KVIV^23S^26N-hP2X1R, S^15V-rP2X3R, and His-S^15V-hP2X3R were the same as used in previous research ([Hausmann et al., 2006]; [Wolf et al., 2011]; [Hausmann et al., 2014]; [Obrecht et al., 2019]). In most cases, the N-terminal His-tagged variants of P2XRs were used here and in the previous studies to allow biochemical analyses on affinity-purified proteins using the same constructs. Although this was not required for the present study, it allows for better comparability with our previous studies. […]
(§2) Ion currents mediated by P2X receptors were evoked by the indicated concentration of ATP or α,β-meATP and were recorded 1 or 2 days after cRNA injection at ambient temperature at a holding potential of −60 mV by two-electrode voltage clamp (TEVC) as previously described ([Hausmann et al., 2006]). […]

The target of data set [2] is T2, S15V-rP2X3R (Rattus norvegicus, UniProt P49654, S15V).
T2 construct: expressed in transfected cells; host or cells: Xenopus laevis oocytes (cRNA injection)
T2 sequence (P49654 1-397 S15V): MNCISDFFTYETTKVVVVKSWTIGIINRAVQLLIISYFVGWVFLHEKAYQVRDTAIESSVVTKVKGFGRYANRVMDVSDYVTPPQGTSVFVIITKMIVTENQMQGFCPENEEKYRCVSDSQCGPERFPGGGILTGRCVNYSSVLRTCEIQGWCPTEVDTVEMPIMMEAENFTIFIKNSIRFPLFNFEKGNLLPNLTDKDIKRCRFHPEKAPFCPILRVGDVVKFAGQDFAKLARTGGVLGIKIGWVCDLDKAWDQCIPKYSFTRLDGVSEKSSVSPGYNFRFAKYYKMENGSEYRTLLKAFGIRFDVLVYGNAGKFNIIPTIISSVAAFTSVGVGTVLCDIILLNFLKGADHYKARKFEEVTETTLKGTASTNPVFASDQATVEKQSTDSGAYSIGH
Set-up: method as in Obrecht et al., 2019. Conditions: previous screening; ref Obrecht et al., 2019; cited from earlier work.

For data set [3] the following is noted: cited from earlier work.
In data set [4] the target is T2, S15V-rP2X3R. Briefly: TEVC of ATP-induced currents, S15V-rP2X3R expressed in X. laevis oocytes (peak current protocol). The format is cell-based. Conditions: 1 µM ATP.
Description: as §1, §2

For `O=C(O)Cc1ccccc1Nc1c(Cl)cccc1Cl` [Diclofenac, diclofenac], 1110 µM corresponded to half-maximal inhibition in data set [1] (10 µM ATP, steady-state protocol, X. laevis oocytes) (IC50). In addition, the inhibition at 1000 µM in data set [1] (read-out: Max. inhibition at 1 mM) stood at 61.2%. Also, the “inhibition of S15V-rP2X3R-mediated currents in screening” value in data set [2] is above 80%. Moreover, in data set [3] (EudraVigilance up to 28/11/2022, ref http://www.adrreports.eu/de/), the “suspected cases of ageusia, dysgeusia, or taste disorders reported in the European Union” value is listed as “more than 110 cases”. Besides, in data set [3] (prospective randomized clinical trial, postoperative administration, ref Attri et al., 2015), the “patients reporting an impaired taste sensation” value is 58%.
Regarding `O=C(O)c1ccccc1Nc1cccc(C(F)(F)F)c1` [Flufenamic acid, flufenamic acid], the IC50 in data set [4] (X. laevis oocytes) is 264 µM. In data set [4] (100 µM FFA), the “inhibitory effect at 100 µM FFA” value came out at 25%.

The record behind these values is article PMC10060569 (Frontiers in Pharmacology, 2023).
